The values below come from patent publication US10328049B2, “Infant nutritional product with RRR alpha-tocopherol” (ABBOTT LABORATORIES, priority 2013, dated 2019).

SMILES strings stand for the structures.

Test in the first data set: not given
Conditions: alpha-tocopherol equivalents (TE); table from Vitamin E in Health and Disease, 1993, p. 21; cited from earlier work.
Consider `CC(=O)Oc1c(C)c(C)c2c(c1C)CCC(C)(CCC[C@H](C)CCC[C@H](C)CCCC(C)C)O2` (mixture of isomers) [Synthetic alpha-tocopherol acetate, alpha-tocopherol acetate], for which the “Activity as alpha-TE” value was 0.74 mg/mg compound.
For the molecule `Cc1c(C)c2c(c(C)c1O)CC[C@@](C)(CCC[C@H](C)CCC[C@H](C)CCCC(C)C)O2` [RRR alpha-tocopherol], the “Activity as alpha-TE” value is listed as 1.0 mg/mg compound.
As to `CC(C)=CCC/C(C)=C/CC/C(C)=C/CC[C@]1(C)CCc2c(C)c(O)c(C)c(C)c2O1` [RRR alpha-tocotrienol], the “Activity as alpha-TE” value is reported as 0.3 mg/mg compound.
Consider `Cc1cc(O)c(C)c2c1O[C@](C)(CCC[C@H](C)CCC[C@H](C)CCCC(C)C)CC2` [RRR beta-tocopherol], for which the “Activity as alpha-TE” value is on record as 0.5 mg/mg compound.
Take `CC(C)=CCC/C(C)=C/CC/C(C)=C/CC[C@]1(C)CCc2c(C)c(O)cc(C)c2O1` [RRR beta-tocotrienol]: the “Activity as alpha-TE” value is recorded as 0.05 mg/mg compound.
As to `Cc1cc(O)cc2c1O[C@](C)(CCC[C@H](C)CCC[C@H](C)CCCC(C)C)CC2` [RRR delta-tocopherol], the “Activity as alpha-TE” value is 0.03 mg/mg compound.
In the case of `Cc1c(O)cc2c(c1C)O[C@](C)(CCC[C@H](C)CCC[C@H](C)CCCC(C)C)CC2` [RRR gamma-tocopherol], the “Activity as alpha-TE” value is 0.1 mg/mg compound.

The data set is the same for the next values; noted with them: assigned reference activity; cited from earlier work.
With `Cc1c(C)c2c(c(C)c1O)CC[C@@](C)(CCC[C@H](C)CCC[C@H](C)CCCC(C)C)O2` [RRR alpha-tocopherol], the “assigned vitamin E activity” value is recorded as 1 mg alpha-tocopherol equivalent (TE) per milligram.

A short description of a further data set: Brain analysis of infant brain (tocopherol content and correlations). It is filed as in vivo, human. Conditions: formula fed infant brain. From the text:
Cholesterol is a major component of myelin, and thus, is a marker for extent of CNS myelination. Glutamate is a neurotransmitter, which is reported to stimulate neuron outgrowth and branching. […] Accordingly, an excessively high level of dietary gamma-tocopherol may hinder the brain uptake of RRR alpha-tocopherol, and thus, may hinder CNS development.
Most commercial infant formulas are fortified with synthetic alpha-tocopherols. It has been reported that the plasma […] of the 2R isomers are about equal for animals fed a diet containing synthetic alpha-tocopherols. These findings indicate that RRR alpha-tocopherol is preferably absorbed into the brain or it is metabolized at a much slower rate than RSR, RRS and RSS tocopherols.
On to `Cc1c(C)c2c(c(C)c1O)CC[C@@](C)(CCC[C@H](C)CCC[C@H](C)CCCC(C)C)O2` [RRR alpha-tocopherol], for which the “share of the alpha-tocopherol in brain that is RRR alpha-tocopherol” value is “over 60%”.
